# According to patent EP4806892A1, “CEREBLON E3 UBIQUITIN LIGASE INHIBITOR” (GAN & LEE PHARMACEUTICALS CO., LTD., priority 2023, dated 2025):
# Molecular target: T1, AR protein (Homo sapiens, UniProt P10275, T878A)
# T1 construct: AR-positive human prostate cancer cells (LNCaP, cell source: ATCC); host or cells: LNCaP
# Test: AR protein degradation in LNCaP cells (Western blot)
# Type: cell-based
# Settings: 8 hours
# Description: AR-positive human prostate cancer cells (LNCaP, cell source: ATCC) were cultured in RPMI 1640 (ATCC catalog number 30-2001) containing 10% FBS (Hyclone catalog number SH30406.05), and the cells were inoculated into a six-well microplate (Thermo catalog number 140675) at a density of 1.5 × 10^5 cells/well. After the cells were cultured overnight in a carbon dioxide incubator (ESCO), the prepared compound of the present invention and the positive control sample ARV-766 (source: energy chemical) solution of different concentrations were added at a volume of 1 µL/well to make the final concentrations of the compound and the positive control sample reach 100nM and 10nM, respectively. At the same time, the corresponding solvent control was set and cultured for 8 hours. After 8 hours of culture, the culture medium was removed, the cells were washed with PBS, and RIPA lysis buffer containing 1% Protease Inhibitor Cocktail was added. After lysis and centrifugation, the total protein extract was obtained, and the protein concentration in the extract was detected by BCA method. Protein electrophoresis was performed using SDS-PAGE, and then the protein was transferred to a PVDF (Millipore Sigma catalog number PSRP010R5) membrane at a constant voltage of 100V for 60 minutes. The PVDF membrane was placed in a 5% milk powder 1×TBST solution and blocked at room temperature for 1 hour. The primary antibody solution (Anti-Androgen receptor, Cell Signaling Technology catalog number: 5153S; 1:2000 dilution) was prepared and incubated at 4°C overnight. The primary antibody solution was discarded and the PVDF membrane was washed with 1×TBST for 5 minutes each time, three times. The secondary antibody solution (Thermo, catalog number SA5-35571; 1:7500 dilution) was prepared and incubated at room temperature for 1 hour. The secondary antibody solution was discarded and the PVDF membrane was washed with 1×TBST for 5 minutes each time, three times. A dual-color infrared laser imaging system (Licor catalog number Odyssey CLX) was used for Western membrane imaging. The Image Studio software was used to analyze the grayscale of the bands. GAPDH protein bands were also detected for each sample as an internal reference. The AR protein degradation rate of the compound and the positive control sample was calculated based on the grayscale of the protein bands. Among them, "A" means degradation rate ≥ 50%, "B" means 50%> degradation rate ≥ 20%, "C" means 20% degradation rate ≥ 10%, and "D" means degradation rate less than 10%.
# T1 sequence (P10275 whole entry T878A): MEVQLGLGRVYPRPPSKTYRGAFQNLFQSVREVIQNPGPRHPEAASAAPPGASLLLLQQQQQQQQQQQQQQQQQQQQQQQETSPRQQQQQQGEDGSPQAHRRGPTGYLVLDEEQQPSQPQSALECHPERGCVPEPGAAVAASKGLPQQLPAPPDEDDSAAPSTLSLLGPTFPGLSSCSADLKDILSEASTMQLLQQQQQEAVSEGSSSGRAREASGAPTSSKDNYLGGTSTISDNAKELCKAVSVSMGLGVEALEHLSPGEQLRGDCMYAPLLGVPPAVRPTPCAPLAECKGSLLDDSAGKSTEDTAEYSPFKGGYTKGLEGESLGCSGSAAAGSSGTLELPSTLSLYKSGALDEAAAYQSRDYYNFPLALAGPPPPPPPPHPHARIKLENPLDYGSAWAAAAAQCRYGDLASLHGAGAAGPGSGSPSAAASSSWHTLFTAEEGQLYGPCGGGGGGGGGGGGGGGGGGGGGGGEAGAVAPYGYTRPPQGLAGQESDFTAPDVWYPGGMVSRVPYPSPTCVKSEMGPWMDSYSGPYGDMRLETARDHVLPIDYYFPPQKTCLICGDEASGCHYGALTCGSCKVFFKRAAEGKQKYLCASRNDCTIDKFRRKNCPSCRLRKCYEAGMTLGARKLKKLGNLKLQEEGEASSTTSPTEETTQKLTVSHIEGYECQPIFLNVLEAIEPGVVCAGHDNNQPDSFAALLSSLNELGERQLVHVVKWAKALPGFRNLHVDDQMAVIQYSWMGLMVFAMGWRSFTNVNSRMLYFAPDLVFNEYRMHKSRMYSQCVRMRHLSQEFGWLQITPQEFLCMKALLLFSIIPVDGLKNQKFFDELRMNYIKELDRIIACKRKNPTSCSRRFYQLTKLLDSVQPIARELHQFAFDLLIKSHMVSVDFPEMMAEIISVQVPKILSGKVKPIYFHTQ
# T1 sequence (Q96SW2 whole entry partner): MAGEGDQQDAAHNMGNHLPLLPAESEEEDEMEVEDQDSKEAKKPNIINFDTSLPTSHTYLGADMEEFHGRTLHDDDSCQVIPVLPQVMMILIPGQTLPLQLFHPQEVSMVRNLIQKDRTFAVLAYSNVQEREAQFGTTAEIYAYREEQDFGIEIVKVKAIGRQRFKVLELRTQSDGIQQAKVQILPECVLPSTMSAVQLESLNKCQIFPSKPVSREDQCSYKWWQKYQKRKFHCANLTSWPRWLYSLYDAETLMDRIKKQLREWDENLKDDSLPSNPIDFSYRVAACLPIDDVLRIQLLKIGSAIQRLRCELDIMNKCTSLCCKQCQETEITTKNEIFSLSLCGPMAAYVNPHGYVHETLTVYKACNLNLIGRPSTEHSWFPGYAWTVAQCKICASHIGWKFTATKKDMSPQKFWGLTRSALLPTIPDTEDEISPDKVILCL
Structure (SMILES),Degradation rate of AR protein in LNCAP cells (10 nM),Degradation rate of AR protein in LNCAP cells (100 nM)
C[C@H]1CC2(CCN(c3ccc(C(=O)N4CCC(CN5CCN6c7ccc(N8CCC(=O)NC8=O)cc7OCC[C@H]6C5)CC4)cc3)CC2)CN1c1ccc(C#N)c(C(F)(F)F)c1 [A-P-195],A (degradation rate ≥ 50%),A (degradation rate ≥ 50%)
COc1cc(O[C@H]2C(C)(C)[C@H](NC(=O)c3ccc(N4CCC(F)(CN5CCN6c7ccc(N8CCC(=O)NC8=O)cc7OCC[C@H]6C5)CC4)cc3)C2(C)C)ccc1C#N [A-P-196],B (50%> degradation rate ≥ 20%),A (degradation rate ≥ 50%)
C[C@H]1CC2(CCN(c3ccc(C(=O)N4CCC(CN5CCC6(COc7cc(N8CCC(=O)NC8=O)ccc76)C(F)(F)C5)CC4)cc3)CC2)CN1c1ccc(C#N)c(Cl)c1 (stereo partly shown) [A-P-233],A (degradation rate ≥ 50%),A (degradation rate ≥ 50%)
"C[C@H]1CC2(CCN(c3ccc(C(=O)N4CCC(CN5CCC6(CC5)CN(C)c5ccc(N7CCC(=O)NC7=O)cc5O6)CC4)cc3)CC2)CN1c1ccc(C#N)c(Cl)c1 [A-P-235, (S)-2-chloro-4-(8-(4-(4-((7-(2,4-dioxotetrahydropyrimidin-1(2H)-yl)-4-methyl-3,4-dihydrospiro[benzo[b][1,4]oxazin-2,4'-piperidine]-1'-yl)methyl)piperidine-1-carbonyl)phenyl)-3-methyl-2,8-diazaspiro[4.5]decane-2-yl)benzonitrile]",A (degradation rate ≥ 50%),A (degradation rate ≥ 50%)
"COc1cc(O[C@H]2C(C)(C)[C@H](NC(=O)c3ccc(N4CCC(CN5CCN(c6ccc(C(=O)N[C@H]7CCC(=O)NC7=O)c(F)c6)CC5)CC4)cc3)C2(C)C)ccc1C#N [ARV766, reference compound]",B (50%> degradation rate ≥ 20%),A (degradation rate ≥ 50%)
